Series [1] concerns miR-17. Briefly: miR-17 luciferase reporter assay in HeLa cells. The class given is cell-based. The settings on record: mean. Here is the method: In vitro potency was evaluated using a luciferase reporter assay. A luciferase reporter plasmid for miR-17, with […] in the 3′-UTR of the luciferase gene. Compounds of longer lengths were selected if their maximum inhibition was greater than that of the tool anti-miR-17 compound. As shorter compounds, such as 9-mers, are typically not maximally active in the same assay conditions used for longer compounds, shorter compounds were selected based on maximum inhibition relative to appropriate control compounds. In this way, compounds that are diverse in both length and chemical composition were included in further testing.
One assay employed was the luciferase assay. […] Accordingly, the luciferase assay transfection conditions were optimized for short anti-miR-17 compounds, so that the inhibitory activity of the compounds could be measured.
The luciferase reporter plasmid for miR-17 contained a fully complementary miR-17 binding site in the 3′-UTR of the luciferase gene. HeLa cells were transfected with the microRNA mimic and its cognate luciferase reporter, followed by transfection with anti-miR-17 at doses of […], 3, 10, 30, 100, and 300 nM. At the end of the 24-hour transfection period, luciferase activity was measured. As shown in Table 2-1, RG4047, while not as potent as RG4326, inhibited miR-17 activity in a dose dependent manner. SD indicates standard deviation.
Additional in vitro assays were conducted to further explore the potency of RG4326. A luciferase reporter assay was used to test the ability of RG4326 to inhibit the miR-17 family members miR-17, miR-20a, miR-93, and miR-106b. A luciferase reporter plasmid for each of miR-20a, miR-93, and miR-106b was constructed, with a fully complementary microRNA binding site in the 3′-UTR of the luciferase gene. HeLa cells were transfected with the microRNA mimic and its cognate luciferase reporter, followed by transfection with anti-miR-17 at a dose of 100 nm. […] As RG4326 is 100% complementary to the other miR-17 family members not tested, miR-20b and […], it is expected to inhibit these microRNAs as well.

For series [2], the system named is miR-17. Nature of the series: microRNA polysome shift assay (miPSA), kidney target engagement. The class given is in vivo, mouse. More on the design: miPSA Score Wild Type Mice / miPSA Score PKD Mice / miPSA displacement score (mean): scale not given here. The settings on record: kidney, seven days. Here is the method: (§1) In vivo potency was evaluated using the microRNA polysome shift assay (miPSA). This assay was used to determine the extent to which compounds directly engage the miR-17 target in the kidney in normal and PKD mice. The miPSA relies on the principle that active miRNAs bind to their mRNA targets in translationally active high molecular weight (HMW) polysomes, whereas the inhibited miRNAs reside in the low MW (LMW) polysomes. Treatment with anti-miR results in a shift of the microRNA from HMW polysomes to LMW polysomes. Thus, the miPSA provides a direct measurement of microRNA target engagement by a complementary anti-miR (Androsavich et al., Nucleic Acids Research, 2015, 44: e13).
(§2) The miPSA was used to assess the potency of each compound, measured by the displacement score, in wild type and JCK mice. Tissue accumulation of anti-miR-17 compound was measured by extraction of compound using liquid-liquid extraction (LLE) and/or solid-phase extraction (SPE), followed by analysis of the identity and concentration of compound using ion-pairing-reversed-phase high performance liquid chromatography coupled with time-of-flight mass spectrometry (IP—RP-HPLC-TOF).
(§3) Wild type mice were administered a single dose of 3 mg/kg for the miPSA analysis, and a single dose of 30 mg/kg for the tissue accumulation analysis. JCK mice were administered a single dose of 30 mg/kg for both the miPSA and tissue accumulation analyses. Kidney tissue was collected seven days following the administration of anti-miR-17 compound. […] A higher kidney-to-liver ratio is generally preferred for a disease where the primary site of action is the kidney.
as §1, with “The” for “In vivo potency was evaluated using the”, “(miPSA),” for “(miPSA). This assay”, “identify” for “determine the extent to which”, “compounds that” for “compounds”, “engage” for “engage the”, “miR-17” for “miR-17 target”
For this experiment, the PKD model selected was the JCK model, a mouse model of slowly progressing renal cystic disease associated with the same gene that causes human nephronophthisis type 9. Renal cysts in this mouse develop in multiple regions of the nephron.
C57BL6 mice were treated with a single, subcutaneous dose of 0.3, 3, and 30 mg/kg of RG4326 or tool anti-miR-17 (described in Example 1). JCK mice were treated with a single, subcutaneous dose of 3, 30, and 100 mg/kg of RG4326 or tool anti-miR-17. PBS treatment was used as an additional control. At seven days post-treatment, mice were sacrificed, and kidney tissue was isolated for the miPSA. […] The displacement scores following treatment with RG4326 were greater than the displacement scores following treatment with the tool anti-miR-17 compound. The data for wild-type mice and JCK mice are also shown in FIG. 3A and FIG. 3B, respectively.
Pharmacokinetic behavior was assessed by administering a single subcutaneous 30 mg/kg dose of RG4326 or tool anti-miR-17 compound to wild-type mice. At one hour, four hours, eight hours, one day, seven days, 14 days, 28 days and 56 days following the single injection, mice were sacrificed and the mean concentration of anti-miR compound in kidney and liver tissue was measured (ug/g) as described above. The area-under-curve (AUC) was calculated for kidney and liver tissue using the formula ug*h/g, where ug is the amount of oligonucleotide in the tissue, h is the timepoint of tissue collection in hours, and g is the weight of the tissue. The ratio of kidney AUC to liver AUC was determined. Kidney tissue was also processed to the miPSA, to determine target engagement for each compound in this study. […]

Series [3] in a line: Tissue accumulation in kidney and liver (kidney-to-liver ratio). The class given is in vivo, mouse. To be noted: single dose 30 mg/kg, seven days. On the procedure: Pharmacokinetic properties and tissue distribution of select compounds were assessed in wild type C57BL6 mice and JCK mice (an experimental model of PKD). Compound was administered to wild type mouse at a dose of 0.3, 3, or 30 mg/kg, or to JCK mice at a dose of 3, 30, or 100 mg/kg. After seven days, mice were sacrificed. Kidney and liver tissues were collected. Concentration of anti-miR-17 compound was measured in liver and kidney. Compounds that accumulate to a greater level in kidney, relative to liver (i.e., have a higher kidney-to-liver ratio) were preferred.
as §2, §3

Series [4] is described as follows: Safety evaluation of RG4047 (pro-inflammatory signal in kidney and liver). On the procedure:
In in vitro assays, the potential for toxicity was assessed using a biochemical fluorescent binding assay (FBA) and a liver or kidney slice assay. The FBA is performed by incubating a fluorescent dye with each compound, and immediately measuring fluorescence. Highly fluorescent compounds have the potential to produce toxicity in vivo. The liver or kidney slice assay is performed by incubating a slice of tissue from a core liver sample isolated from rat. Following a 24-hour incubation, RNA is extracted from the tissue slice, and the expression levels of 18 pro-inflammatory genes are measured. An induction in pro-inflammatory gene expression indicates a potential for pro-inflammatory effects in vivo.
Additional in vivo toxicology assessments were performed by administering to normal mice (Sv129 mice) a single subcutaneous injection of 300 mg/kg of anti-miR-17 compound. After four days, mice were sacrificed, blood was collected for serum chemistry analysis, liver and spleen were weighed, and RNA was isolated from kidney and liver tissues. The expression level of a pro-inflammatory gene, interferon-induced protein with tetratricopeptide repeats (IFIT), was measured.
RG4047 was evaluated for potency in vivo, safety, and distribution to kidney and liver.

Consider 1 sequence from patent US20250333745A1, “METHODS AND COMPOSITIONS FOR TREATMENT OF POLYCYSTIC KIDNEY DISEASE” (Regulus Therapeutics Inc., priority 2016, published 2025).

For ASGSCSASCSUSUSUSGS [RG4047], the “Luciferase Fold Derepression” value is on record as 1 in series [1] (0.001 nM anti-miR-17, 24-hour transfection); 1.6 in series [1] (3 nM anti-miR-17, 24-hour transfection); 2.2 in series [1] (10 nM anti-miR-17, 24-hour transfection); 3.5 in series [1] (30 nM anti-miR-17, 24-hour transfection); 8.2 in series [1] (100 nM anti-miR-17, 24-hour transfection); 7.5 in series [1] (300 nM anti-miR-17, 24-hour transfection). Also, in series [2] (JCK mice, single dose 30 mg/kg), the “miPSA Score PKD Mice” value is on record as 1.80. Moreover, in series [2] (wild type mice, single dose 3 mg/kg), the “miPSA Score Wild Type Mice” value is listed as 1.76. Also, in series [3] (JCK mice), the “Kidney-to-Liver Ratio PKD Mice” value stood at 2.1. The “Kidney-to-Liver Ratio Wild Type Mice” value in series [3] (wild type mice) was determined as 4.4. The “pro-inflammatory signal (in words)” value in series [4] is “slight pro-inflammatory signal in both kidney and liver”.
